Measured values as given in patent US20240090503A1, “FUNGICIDAL OXADIAZOLES AND THEIR MIXTURES” (FMC CORPORATION, priority 2020, published 2024).

Assays:
[1] = system: Puccinia recondita f. sp. tritici (the causal agent of wheat leaf rust); assay: Test C: preventive spray on wheat seedlings, wheat leaf rust, visual disease rating; format: in vivo; conditions: wheat seedlings; for pest or weed control at 10 µg/mL: Puccinia recondita, 168 h, read-out: Test C disease control rating
In short: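 Wheat seedlings sprayed to run-off with compound in acetone/water (50/50) with 250 ppm PEG400, then inoculated with spores the following day. After 24 h saturated humidity at 20° C. and 6 days in growth chamber at 20° C., disease rated visually as % control relative to untreated controls.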

[2] = system: Phakopsora pachyrhizi (the causal agent of Asian soybean rust); assay: Test A: preventive spray on soybean seedlings, Asian soybean rust, visual disease rating; format: in vivo; conditions: soybean seedlings; for pest or weed control at 10 µg/mL: Phakopsora pachyrhizi, 216 h, read-out: Test A disease control rating
In short: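 Compound in acetone/water (50/50) with 250 ppm PEG400 sprayed to run-off on soybean seedlings; inoculated next day with Phakopsora pachyrhizi spores. Held 24 h at 22° C in saturated atmosphere, then 8 days in a 22° C growth chamber before visual rating as % disease control relative to controls.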

[3] = test suspension 10 ppm, 100 = 100% disease control, 0 = no control
[4] = 50 ppm test suspension, 100 = 100% disease control, 0 = no control
[5] = 10 ppm test suspension, 100 = 100% disease control, 0 = no control

In the case of `COC(=O)c1cccc2cn(Cc3ccc(-c4noc(C(F)(F)F)n4)cc3)nc12` [compound 50], the “Test C disease control rating” value ([1]; test suspension 10 ppm) is reported as 28% and the “Test A disease control rating” value [2, 3] is reported as 13%.

With `CNC(=O)c1cnn(Cc2ccc(-c3noc(C(F)(F)F)n3)cc2)c1` [compound 61] the “Test C disease control rating” value ([1]; test suspension 10 ppm) was 100% and the “Test A disease control rating” value [2, 3] was 100%.

`CCOC(=O)C1(Cc2ccc(-c3noc(C(F)(F)F)n3)cc2)CCCNC1=O` (stereo not drawn) [compound 432] was tested, and the “Test C disease control rating” value [1, 4] was 92% and the “Test A disease control rating” value [2, 4] was 100%.

In the case of `COCCNC(=O)C1=NOC(Cc2ccc(-c3noc(C(F)(F)F)n3)s2)C1` (stereo not drawn) [compound 461], the “Test C disease control rating” value [1, 4] is reported as 100% and the “Test A disease control rating” value [2, 4] is reported as 100%.

`CC(C)OC(=O)c1cnn(Cc2ccc(-c3noc(C(F)(F)F)n3)s2)c1` [compound 200] was tested, and the “Test C disease control rating” value ([1]; test suspension 10 ppm) was 100% and the “Test A disease control rating” value [2, 3] was 100%.

In the case of `COC(=O)c1cccc2nn(Cc3ccc(-c4noc(C(F)(F)F)n4)cc3)cc12` [Compound 36, methyl 2-[[4-[5-(trifluoromethyl)-1,2,4-oxadiazol-3-yl]phenyl]methyl]-2H-indazole-4-carboxylate], the pest or weed control at 10 µg/mL ([1]; test suspension 10 ppm) is reported as 100% and the pest or weed control at 10 µg/mL [2, 3] is reported as 100%.

With `Cc1nn(Cc2ccc(-c3noc(C(F)(F)F)n3)cc2)c2ccccc12` [compound 99] the “Test C disease control rating” value ([1]; test suspension 10 ppm) was 68% and the “Test A disease control rating” value [2, 3] was 100%.

For `O=Cc1cnn(Cc2ccc(-c3noc(C(F)(F)F)n3)s2)c1` [compound 197], the “Test C disease control rating” value ([1]; test suspension 10 ppm) was 98% and the “Test A disease control rating” value [2, 3] was 99%.

With `C#CCON=Cc1cnn(Cc2ccc(-c3noc(C(F)(F)F)n3)cc2)c1` [compound 387] the “Test C disease control rating” value [1, 5] was 99% and the “Test A disease control rating” value [2, 5] was 100%.

For `CCOC(=O)c1cnn(Cc2cc(-c3noc(C(F)(F)F)n3)cs2)c1` [compound 271], the “Test C disease control rating” value ([1]; test suspension 10 ppm) was 68% and the “Test A disease control rating” value [2, 3] was 99%.

In the case of `FC(F)(F)c1nc(-c2ccc(Cn3ncc4cnc(Cl)nc43)cc2)no1` [compound 152], the “Test C disease control rating” value ([1]; test suspension 10 ppm) is reported as 100% and the “Test A disease control rating” value [2, 3] is reported as 100%.

For `CCCCOC(=O)c1cnn(Cc2ccc(-c3noc(C(F)(F)F)n3)cc2)c1` [compound 410], the “Test C disease control rating” value [1, 5] was 100% and the “Test A disease control rating” value [2, 5] was 100%.

With `CCOC(=O)c1cnn(C[S+]([O-])Cc2ccc(-c3noc(C(F)(F)F)n3)cc2)c1` (stereo not drawn) [compound 242] the “Test C disease control rating” value ([1]; test suspension 10 ppm) was 99% and the “Test A disease control rating” value [2, 3] was 100%.

In the case of `CCOC(=O)c1cc(C(C)(C)C)n(Cc2ccc(-c3noc(C(F)(F)F)n3)cc2)n1` [compound 187], the “Test C disease control rating” value ([1]; test suspension 10 ppm) is reported as 0% and the “Test A disease control rating” value [2, 3] is reported as 0%.

With `N#Cc1cccc2c1cnn2Cc1ccc(-c2noc(C(F)(F)F)n2)cc1` [compound 105] the “Test C disease control rating” value ([1]; test suspension 50 ppm) was 100% and the “Test A disease control rating” value ([2]; test suspension 50 ppm) was 100%.

In the case of `O=C(O)c1cnn(Cc2ccc(-c3noc(C(F)(F)F)n3)cc2)c1` [compound 55], the “Test C disease control rating” value ([1]; test suspension 10 ppm) is reported as 99% and the “Test A disease control rating” value [2, 3] is reported as 100%.

For `CCOC(=O)C1(Cc2ccc(-c3noc(C(F)(F)F)n3)cc2)CCNC1=O` (stereo not drawn) [compound 431], the “Test C disease control rating” value [1, 4] was 98% and the “Test A disease control rating” value [2, 4] was 99%.

With `O=C(NCC(F)(F)F)c1cnn(Cc2ccc(-c3noc(C(F)(F)F)n3)cc2)c1` [compound 449] the “Test C disease control rating” value [1, 5] was 100% and the “Test A disease control rating” value [2, 5] was 100%.

With `Nc1nn(Cc2ccc(-c3noc(C(F)(F)F)n3)cc2)c2ncccc12` [compound 446] the “Test C disease control rating” value [1, 5] was 86% and the “Test A disease control rating” value [2, 5] was 99%.

In the case of `FC(F)(F)c1nc(-c2ccc(Cn3cc4c(I)ccnc4n3)cc2)no1` [compound 445], the “Test C disease control rating” value [1, 5] is reported as 99% and the “Test A disease control rating” value [2, 5] is reported as 100%.

With `O=C(O)C1=NOC(Cc2ccc(-c3noc(C(F)(F)F)n3)s2)C1` (stereo not drawn) [compound 367] the “Test C disease control rating” value ([1]; test suspension 50 ppm) was 67% and the “Test A disease control rating” value ([2]; test suspension 50 ppm) was 96%.

`CN(C)C(=O)c1cnn(Cc2ccc(-c3noc(C(F)(F)F)n3)cc2)c1` [compound 62] was tested, and the “Test C disease control rating” value ([1]; test suspension 10 ppm) was 100% and the “Test A disease control rating” value [2, 3] was 100%.

With `FC(F)(F)c1nc(-c2ccc(Cn3nc(Br)c4ccccc43)cc2)no1` [compound 112] the “Test C disease control rating” value ([1]; test suspension 10 ppm) was 0% and the “Test A disease control rating” value [2, 3] was 92%.

With `FC(F)(F)c1nc(-c2ccc(Cn3ncc4cccnc43)cc2)no1` [Compound 147, 1-[[4-[5-(trifluoromethyl)-1,2,4-oxadiazol-3-yl]phenyl]methyl]-1H-pyrazolo[3,4-b]pyridine] the pest or weed control at 10 µg/mL ([1]; test suspension 10 ppm) was 100% and the pest or weed control at 10 µg/mL [2, 3] was 100%.

In the case of `CCOC(=O)c1cnn(Cc2ccc(-c3noc(C(F)(F)F)n3)cn2)c1` [compound 424], the “Test C disease control rating” value [1, 5] is reported as 96% and the “Test A disease control rating” value [2, 5] is reported as 100%.

With `CC(=O)Nc1cnn(Cc2ccc(-c3noc(C(F)(F)F)n3)cc2)c1` [compound 441] the “Test C disease control rating” value [1, 5] was 9% and the “Test A disease control rating” value [2, 5] was 87%.

`FC(F)(F)c1nc(-c2ccc(Cn3nccc3S(F)(F)(F)(F)F)cc2)no1` [compound 504] was tested, and the “Test C disease control rating” value [1, 5] was 0% and the “Test A disease control rating” value [2, 5] was 74%.

With `CCCOC(=O)c1cnn(Cc2ccc3cc(-c4noc(C(F)(F)F)n4)ccc3c2)c1` [compound 416] the “Test C disease control rating” value [1, 4] was 0% and the “Test A disease control rating” value [2, 4] was 77%.

In the case of `C#CCOC(=O)c1cnn(CCCc2ccc(-c3noc(C(F)(F)F)n3)cc2)c1` [compound 374], the “Test C disease control rating” value ([1]; test suspension 10 ppm) is reported as 96% and the “Test A disease control rating” value [2, 3] is reported as 100%.

In the case of `C[Si](C)(C)CCNC(=O)c1coc(Cc2ccc(-c3noc(C(F)(F)F)n3)cc2)n1` [compound 206], the “Test C disease control rating” value ([1]; test suspension 10 ppm) is reported as 68% and the “Test A disease control rating” value [2, 3] is reported as 98%.

`CCCOC(=O)c1cnn(Cc2cc(OC)c(-c3noc(C(F)(F)F)n3)s2)c1` [compound 439] was tested, and the “Test C disease control rating” value [1, 5] was 0% and the “Test A disease control rating” value [2, 5] was 0%.

With `COc1ccc2c(cnn2Cc2ccc(-c3noc(C(F)(F)F)n3)cc2)c1` [compound 126] the “Test C disease control rating” value ([1]; test suspension 260 ppm) was 100% and the “Test A disease control rating” value ([2]; test suspension 260 ppm) was 100%.

For `O=C(OCCN1CCOCC1)c1cnn(Cc2ccc(-c3noc(C(F)(F)F)n3)cc2)c1` [compound 475], the “Test C disease control rating” value [1, 5] was 91% and the “Test A disease control rating” value [2, 5] was 100%.

`CN(CC#N)C(=O)c1cnn(Cc2ccc(-c3noc(C(F)(F)F)n3)cc2)c1` [compound 379] was tested, and the “Test C disease control rating” value [1, 5] was 97% and the “Test A disease control rating” value [2, 5] was 100%.

`O=C(c1csc(Cc2ccc(-c3noc(C(F)(F)F)n3)cc2)n1)N1CCC(F)(F)C1` [compound 207] was tested, and the “Test C disease control rating” value ([1]; test suspension 10 ppm) was 86% and the “Test A disease control rating” value [2, 3] was 100%.

In the case of `CONC(=O)c1cnn(Cc2ccc(-c3noc(C(F)(F)F)n3)cc2)c1` [compound 272], the “Test C disease control rating” value ([1]; test suspension 10 ppm) is reported as 100% and the “Test A disease control rating” value [2, 3] is reported as 100%.

In the case of `CC(COC(=O)c1cnn(Cc2ccc(-c3noc(C(F)(F)F)n3)cc2)c1)=NOC(C)(C)C` [compound 220], the “Test C disease control rating” value ([1]; test suspension 10 ppm) is reported as 86% and the “Test A disease control rating” value [2, 3] is reported as 100%.

With `CCOC(=O)c1c(C)nn(Cc2ccc(-c3noc(C(F)(F)F)n3)cc2)c1C` [compound 66] the “Test C disease control rating” value ([1]; test suspension 255 ppm) was 100% and the “Test A disease control rating” value ([2]; test suspension 255 ppm) was 100%.

`COc1ccc2c(C#N)n(Cc3ccc(-c4noc(C(F)(F)F)n4)cc3)nc2c1` [compound 121] was tested, and the “Test C disease control rating” value ([1]; test suspension 10 ppm) was 0% and the “Test A disease control rating” value [2, 3] was 87%.

With `CC(=O)NN=Cc1cnn(Cc2ccc(-c3noc(C(F)(F)F)n3)cc2)c1` [compound 389] the “Test C disease control rating” value [1, 5] was 100% and the “Test A disease control rating” value [2, 5] was 100%.

With `CCC#CCOC(=O)c1cnn(Cc2ccc(-c3noc(C(F)(F)F)n3)cc2)c1` [compound 339] the “Test C disease control rating” value ([1]; test suspension 10 ppm) was 98% and the “Test A disease control rating” value [2, 3] was 100%.

In the case of `CN(C)C(=O)C1COC(Cc2ccc(-c3noc(C(F)(F)F)n3)cc2)=N1` (stereo not drawn) [Compound 178, 4,5-dihydro-N,N-dimethyl-2-[[4-[5-(trifluoromethyl)-1,2,4-oxadiazol-3-yl]phenyl]methyl]-4-oxazolecarboxamide], the pest or weed control at 10 µg/mL ([1]; test suspension 10 ppm) is reported as 68% and the pest or weed control at 10 µg/mL [2, 3] is reported as 96%.

For `CS(=O)(=O)Nc1cnn(Cc2ccc(-c3noc(C(F)(F)F)n3)cc2)c1` [compound 442], the “Test C disease control rating” value [1, 5] was 0% and the “Test A disease control rating” value [2, 5] was 44%.

`COc1cnn(Cc2ccc(-c3noc(C(F)(F)F)n3)cc2)c(=O)c1` [compound 28] was tested, and the “Test C disease control rating” value ([1]; test suspension 50 ppm) was 100% and the “Test A disease control rating” value ([2]; test suspension 50 ppm) was 100%.

In the case of `COC(=O)c1cccc2cnn(Cc3ccc(-c4noc(C(F)(F)F)n4)cc3)c12` [compound 47], the “Test C disease control rating” value ([1]; test suspension 10 ppm) is reported as 74% and the “Test A disease control rating” value [2, 3] is reported as 100%.

With `Cc1cccc2cnn(Cc3ccc(-c4noc(C(F)(F)F)n4)cc3)c12` [compound 101] the “Test C disease control rating” value ([1]; test suspension 50 ppm) was 100% and the “Test A disease control rating” value ([2]; test suspension 50 ppm) was 100%.

In the case of `Cc1cccc2cn(Cc3ccc(-c4noc(C(F)(F)F)n4)cc3)nc12` [compound 103], the “Test C disease control rating” value ([1]; test suspension 10 ppm) is reported as 97% and the “Test A disease control rating” value [2, 3] is reported as 100%.

With `COc1ccn(Cc2ccc(-c3noc(C(F)(F)F)n3)cc2)c(=O)c1` [compound 421] the “Test C disease control rating” value [1, 5] was 100% and the “Test A disease control rating” value [2, 5] was 100%.

With `O=C(NC1CC1)c1cnn(Cc2ccc(-c3noc(C(F)(F)F)n3)cc2)c1` [compound 69] the “Test C disease control rating” value ([1]; test suspension 10 ppm) was 100% and the “Test A disease control rating” value [2, 3] was 100%.

For `C=CCOC(=O)c1cnn(Cc2ccc(-c3noc(C(F)(F)F)n3)s2)c1` [compound 199], the “Test C disease control rating” value ([1]; test suspension 10 ppm) was 100% and the “Test A disease control rating” value [2, 3] was 100%.

In the case of `CCOC(=O)c1cnn(Cc2ccc(-c3noc(C(F)(F)F)n3)cc2F)c1` [compound 304], the “Test C disease control rating” value ([1]; test suspension 10 ppm) is reported as 100% and the “Test A disease control rating” value [2, 3] is reported as 100%.
